Measurements from US6306422A, “Compositions and devices for controlled release of active ingredients” (priority 1998, dated 2001).
Counter-ions that a name gives are not always drawn.

Columns and labels:
struvite encrustation = settings: cited from earlier work
[1] = cited from earlier work
[2] = cited from earlier work; remark: listed apart in the source
urease = target: T1, urease (Proteus mirabilis, UniProt P17086); test: Bacteria/urease study: pH of artificial urine with Proteus mirabilis; type: cell-based; settings: 10^11 bacteria/ml
T1 construct: endogenous in cells; host or cells: living Proteus mirabilis (clinic isolate) in artificial urine
T1 sequence (P17086 whole entry): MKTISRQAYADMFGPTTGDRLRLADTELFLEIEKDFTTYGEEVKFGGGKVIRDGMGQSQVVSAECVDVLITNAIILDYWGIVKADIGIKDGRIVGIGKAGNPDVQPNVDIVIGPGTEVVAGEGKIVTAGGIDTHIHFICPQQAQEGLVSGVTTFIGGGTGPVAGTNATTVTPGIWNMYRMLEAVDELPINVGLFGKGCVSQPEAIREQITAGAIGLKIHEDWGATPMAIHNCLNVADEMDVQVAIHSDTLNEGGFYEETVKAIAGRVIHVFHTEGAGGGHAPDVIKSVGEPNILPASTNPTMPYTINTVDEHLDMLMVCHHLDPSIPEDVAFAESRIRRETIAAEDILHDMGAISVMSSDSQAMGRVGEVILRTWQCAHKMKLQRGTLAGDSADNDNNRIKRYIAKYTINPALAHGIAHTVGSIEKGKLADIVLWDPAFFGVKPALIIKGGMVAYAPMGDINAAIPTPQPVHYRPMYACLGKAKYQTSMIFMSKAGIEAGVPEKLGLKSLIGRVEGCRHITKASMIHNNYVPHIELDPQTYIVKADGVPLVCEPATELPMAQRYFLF
T1 sequence (P17088 whole entry, further chain): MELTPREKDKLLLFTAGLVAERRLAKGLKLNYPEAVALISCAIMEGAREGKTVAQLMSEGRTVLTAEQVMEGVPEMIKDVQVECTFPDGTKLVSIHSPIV
T1 sequence (P17087 whole entry, further chain): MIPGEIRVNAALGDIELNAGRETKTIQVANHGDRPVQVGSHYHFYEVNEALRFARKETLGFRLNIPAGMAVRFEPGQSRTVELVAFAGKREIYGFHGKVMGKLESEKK
Description: After mixing, the urine was filter-sterilized into a sterile container using a 0.2 μm pore size filtration system. A solution of this artificial urine containing 750 μg/ml of AHA was prepared by dissolving 0.0757 g of the AHA in 100 ml of the urine. This solution was then diluted in series to yield artificial urine with AHA concentrations of 375, 187.5, 75, and 7.5 μg/ml.
Fifty milliliters of these solutions were sterilized by filtering them through a syringe filter with 0.2 μm pore size into a sterile container.
Proteus mirabilis were harvested from the Surgery/Urology clinic at the University of Florida, Gainesville, Fla. These bacteria were cultured on a heart infusion agar (Difco Laboratories) for 48 hours at 37° C. Bacteria were aseptically harvested and suspended in a solution of artificial urine not containing any of the urease inhibitor. Dilutions of this suspension were made to 10,000, and a count of the bacteria was made on a microscopic counting grid. The initial concentration of bacteria was back-calculated by using the Petroff-Hauser formula shown in equation two. [formula]
For the urine solutions containing the urease inhibitor and two control solutions (one containing bacteria and the other without), a series of six test tubes was set up. […] The pH of each of the samples was measured initially and then at 2 hour intervals up to 12 hours. […]

[3] = cited from earlier work; remark: listed apart in the source
[4] = Swelling in solvents for drug loading and AHA loading of the hydrogel; type: physicochemical
Description: Six pieces of the MMA/AA (90/9) polymer were weighed in the dry state. Each piece was placed into 4 ml of a separate solvent. The solvents used were pH buffers with pH values of 4.0, 7.4, and 9.0, 90 v/v % ethanol, methanol, and 90 v/v % acetone at 37° C. […] A 16 w/w % solution of acetohydroxamic acid in 90% acetone was prepared.
Hydrogel pieces were weighed in the dry state. Six pieces weighing approximately the same were separated out for each respective pH buffer value. Each gel piece was individually placed into a test tube containing 3 ml of the 16% AHA acetone solution. The test tubes were capped and wrapped in parafilm to prevent evaporation of the solvent. The test tubes were placed into a 37° C. water bath for 48 hours. The hydrogel pieces were then removed from the AHA solution and placed in a vacuum oven at 60° C. for solvent evaporation and then at room temperature for a total drying time of 72 hours. The drug-loaded gels were then reweighed, and the total AHA content was calculated.
Absorbances for each of the solutions were measured at 515 nm on a Perkin-Elmer Lambda 3B UV/VIS Spectrophotometer. A calibration curve was calculated from the standard concentration solutions. The concentrations of the AHA were calculated from the absorbances and raised to the initial surface area of the gel matrix.

bacteria = settings: cited from earlier work
[5] = in vivo; cited from earlier work
[6] = system: Proteus sp. and other urease-producing organisms; settings: cited from earlier work

O=C(O)CC(O)(CC(=O)O)C(=O)O [Sodium citrate]
prevention of struvite encrustation (struvite encrustation): shows potential

O=C(O)CNC(=O)c1ccccc1 [hippuric acid]
solubility in alcohols [1]: highly soluble

[H]/N=C(\N/C(=N/[H])NCCCCCCNC(=N)NC(=N)Nc1ccc(Cl)cc1)Nc1ccc(Cl)cc1 [chlorhexidine]
solubility in alcohols [1]: highly soluble

CC(=O)NO [AHA, acetohydroxamic acid]
pKa [2]: 9.3 | effect of AHA on the activity of urease (pH of artificial urine) (urease; AHA 7.5-750 μg/ml, 37° C., up to 24 hours): resists pH increase for a longer time and experiences a smaller overall pH increase | concentration of AHA giving therapeutic benefit (urease; artificial urine): 7.5 µg/mL | absorption from the gastrointestinal tract ([3]; human, in vivo): well absorbed | adverse effects limiting use ([3]; patients): Coomb's hemolytic anemia, GI complaints, bone marrow depression, and teratogenicity | concentration near the saturation point ([4]; in 90% acetone): ~16 w/w % | solubility of AHA in the chosen solutions ([4]; pH 4.0, 7.4, 9.0 buffers, 90 v/v % ethanol, methanol, 90 v/v % acetone): very soluble | effect of the presence of AHA on methenamine (bacteria): increases the antibacterial activity of the methenamine

Chondroitin sulfate
prevention of struvite encrustation (struvite encrustation): ineffective

heparin sulfate
prevention of struvite encrustation (struvite encrustation): ineffective

Gentamicin
toxicity limiting plasma concentrations [5]: systemic nephrotoxicity | effectiveness against Proteus sp. and other urease-producing organisms [6]: highly effective
